# Reference: patent US11524945B2, “Compounds for treating ILK-mediated diseases” (The Cleveland Clinic Foundation, priority 2018, dated 2022)
# Like-named read-outs stand apart in the source and are kept apart here.
# How the values were obtained:
# CYP 2A6 = CYP 2A6 (Homo sapiens (Human), UniProt P11509); assay: CYP inhibition in human liver microsomes, 2A6; format: in vitro ADME
# purified recombinant ILK = purified recombinant ILK (Homo sapiens (Human), UniProt Q13418); assay: ILK binding affinity, EnSpire fluorescence intensity; conditions: for binding to purified ILK: fluorescence-based method; for Binding Difference ILK (Kd)/EGFR (Kd) / Kd: EnSpire fluorescence intensity; for Kd: read-out: ILK - Binding affinity
# [1] = Stability in PBS at pH 7.4; format: physicochemical
# Stability in SIF = format: physicochemical
# ILK = ILK (Homo sapiens (Human), UniProt Q13418); assay: ILK binding affinity, Nanotemper
# EGFR = EGFR (Homo sapiens (Human), UniProt P00533); assay: EGFR binding affinity, Nanotemper
# HepG2 cells = assay: Mitochondrial toxicity in HepG2 cells; format: cell-based; conditions: HepG2 cells; for Fold change in IC50: Glucose vs Galactose; for IC50: Homo sapiens
# [2] = Permeability in Caco2 cell line; format: in vitro ADME; conditions: human; for efflux ratio / Papp A→B / Papp B→A: Caco-2; for efflux ratio: Caco2; for Papp A→B: Caco2, A-B; for Papp B→A: Caco2, B-A
# [3] = Protein binding in mouse plasma; format: in vitro ADME
# [4] = Protein binding in human plasma; format: in vitro ADME
# [5] = Protein binding in rat plasma; format: in vitro ADME
# Stability in rat plasma = format: in vitro ADME
# [6] = Solubility in PBS at pH 7.4; format: physicochemical; conditions: aqueous buffer
# [7] = Stability in human plasma; format: in vitro ADME
# [8] = Stability in mouse plasma; format: in vitro ADME
# CYP 2C8 = CYP 2C8 (Homo sapiens (Human), UniProt P10632); assay: CYP inhibition in human liver microsomes, 2C8; format: in vitro ADME
# [9] = Nanotemper, read-out: ILK - Binding affinity
# [10] = Nanotemper, read-out: EGFR - Binding affinity
# [11] = Galactose, read-out: IC50 (μM)_Galactose
# [12] = Glucose, read-out: IC50 (μM)_Glucose
# [13] = Caco-2, Caco2, AP-BL, read-out: Recovery (%)AP-BL
# [14] = Caco-2, Caco2, BL-AP, read-out: Recovery (%)BL-AP
# Chain of EGFR (P00533 25-1210): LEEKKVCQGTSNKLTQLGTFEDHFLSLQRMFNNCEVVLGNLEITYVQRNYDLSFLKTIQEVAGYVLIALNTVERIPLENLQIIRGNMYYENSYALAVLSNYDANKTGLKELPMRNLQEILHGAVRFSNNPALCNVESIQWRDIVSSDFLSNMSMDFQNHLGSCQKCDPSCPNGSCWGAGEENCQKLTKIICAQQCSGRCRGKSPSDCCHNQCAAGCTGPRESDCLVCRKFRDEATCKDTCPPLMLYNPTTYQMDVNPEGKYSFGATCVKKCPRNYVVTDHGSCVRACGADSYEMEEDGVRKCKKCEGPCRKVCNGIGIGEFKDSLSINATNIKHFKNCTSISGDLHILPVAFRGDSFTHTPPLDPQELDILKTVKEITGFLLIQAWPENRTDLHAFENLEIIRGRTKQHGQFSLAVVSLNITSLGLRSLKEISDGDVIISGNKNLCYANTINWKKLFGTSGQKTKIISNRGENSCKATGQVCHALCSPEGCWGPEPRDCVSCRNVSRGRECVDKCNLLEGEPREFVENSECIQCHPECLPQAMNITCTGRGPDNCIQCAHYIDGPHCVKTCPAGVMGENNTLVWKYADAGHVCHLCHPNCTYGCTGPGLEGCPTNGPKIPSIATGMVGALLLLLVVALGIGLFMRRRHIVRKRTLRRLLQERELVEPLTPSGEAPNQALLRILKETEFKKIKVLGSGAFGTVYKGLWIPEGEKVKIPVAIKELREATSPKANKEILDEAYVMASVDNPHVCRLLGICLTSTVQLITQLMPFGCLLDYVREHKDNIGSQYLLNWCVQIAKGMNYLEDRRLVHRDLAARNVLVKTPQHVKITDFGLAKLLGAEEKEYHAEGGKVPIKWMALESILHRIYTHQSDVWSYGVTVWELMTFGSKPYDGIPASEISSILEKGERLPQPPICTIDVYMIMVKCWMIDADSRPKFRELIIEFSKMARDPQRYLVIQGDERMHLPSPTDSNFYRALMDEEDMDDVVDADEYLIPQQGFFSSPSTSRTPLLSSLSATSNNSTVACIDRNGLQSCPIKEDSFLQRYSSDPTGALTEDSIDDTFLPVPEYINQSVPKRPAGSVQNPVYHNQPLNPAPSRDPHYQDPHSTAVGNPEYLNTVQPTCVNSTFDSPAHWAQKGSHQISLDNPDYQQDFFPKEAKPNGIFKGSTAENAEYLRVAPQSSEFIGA
# Chain of purified recombinant ILK (Q13418 whole entry): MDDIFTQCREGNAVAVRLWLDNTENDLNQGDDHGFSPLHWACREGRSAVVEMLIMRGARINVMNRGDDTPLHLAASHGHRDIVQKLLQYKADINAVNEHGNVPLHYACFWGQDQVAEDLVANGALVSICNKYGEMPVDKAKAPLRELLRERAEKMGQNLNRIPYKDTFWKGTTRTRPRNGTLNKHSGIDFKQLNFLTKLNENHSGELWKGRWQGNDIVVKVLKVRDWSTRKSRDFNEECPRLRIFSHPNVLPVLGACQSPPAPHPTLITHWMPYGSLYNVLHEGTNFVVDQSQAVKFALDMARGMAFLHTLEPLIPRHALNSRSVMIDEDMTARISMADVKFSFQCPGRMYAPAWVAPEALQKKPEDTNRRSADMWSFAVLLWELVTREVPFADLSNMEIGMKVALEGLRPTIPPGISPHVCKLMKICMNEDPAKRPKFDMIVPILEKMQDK
# Chain of ILK (Q13418 whole entry): as above
# Chain of CYP 2C8 (P10632 whole entry): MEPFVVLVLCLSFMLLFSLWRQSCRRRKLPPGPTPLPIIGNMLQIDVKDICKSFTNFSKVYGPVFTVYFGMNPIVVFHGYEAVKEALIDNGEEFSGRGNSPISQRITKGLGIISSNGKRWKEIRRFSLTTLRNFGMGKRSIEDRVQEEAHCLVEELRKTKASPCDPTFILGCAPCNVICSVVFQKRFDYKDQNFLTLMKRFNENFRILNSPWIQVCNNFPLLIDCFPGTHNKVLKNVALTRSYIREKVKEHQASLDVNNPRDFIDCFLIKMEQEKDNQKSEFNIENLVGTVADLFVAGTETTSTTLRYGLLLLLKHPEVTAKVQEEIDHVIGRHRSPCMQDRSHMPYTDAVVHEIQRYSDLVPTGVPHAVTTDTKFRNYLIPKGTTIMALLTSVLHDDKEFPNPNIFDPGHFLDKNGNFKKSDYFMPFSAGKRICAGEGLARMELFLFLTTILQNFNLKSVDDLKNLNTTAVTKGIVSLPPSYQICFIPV
# Chain of CYP 2A6 (P11509 whole entry): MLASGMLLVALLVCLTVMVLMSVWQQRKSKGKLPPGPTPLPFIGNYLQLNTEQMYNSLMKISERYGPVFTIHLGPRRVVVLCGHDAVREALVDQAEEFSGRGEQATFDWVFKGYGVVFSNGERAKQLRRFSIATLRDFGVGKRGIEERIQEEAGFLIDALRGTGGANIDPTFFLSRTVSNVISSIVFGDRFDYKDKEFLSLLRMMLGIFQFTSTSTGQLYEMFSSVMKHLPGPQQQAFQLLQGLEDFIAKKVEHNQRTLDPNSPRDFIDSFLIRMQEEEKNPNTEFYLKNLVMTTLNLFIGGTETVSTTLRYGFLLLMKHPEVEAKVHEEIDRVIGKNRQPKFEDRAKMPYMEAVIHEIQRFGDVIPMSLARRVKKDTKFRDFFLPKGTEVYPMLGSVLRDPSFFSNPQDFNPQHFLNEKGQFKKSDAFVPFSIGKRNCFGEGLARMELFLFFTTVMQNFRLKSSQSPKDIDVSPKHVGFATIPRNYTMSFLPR
smiles,measurement,setting,value
"N[C@@H]1C[C@H]1c1ccccc1 (racemic) [Tranylcypromine, reference compound]",IC50,CYP 2A6,0.69 µM
"CN1Cc2c(ccc3c2OCO3)C2C(O)Cc3cc4c(cc3C21)OCO4 (stereo not drawn) [Chelidonine, reference compound]",binding to purified ILK,purified recombinant ILK,no detectable binding
"O=C(O)CCCc1ccc(N(CCCl)CCCl)cc1 [Chlorambucil, reference compound]",Remaining Percentage (%),"[1]; PBS pH 7.4, 0 min",100.00%
same,Remaining Percentage (%),"[1]; PBS pH 7.4, 30 min",37.17%
same,Remaining Percentage (%),"[1]; PBS pH 7.4, 60 min",11.53%
same,Remaining Percentage (%),"[1]; PBS pH 7.4, 120 min",2.35%
same,Remaining Percentage (%),"[1]; PBS pH 7.4, 180 min",0.09%
same,Remaining Percentage (%),"[1]; PBS pH 7.4, 240 min",0.03%
same,Remaining Percentage (%),Stability in SIF; 0 min,100.00%
same,Remaining Percentage (%),Stability in SIF; 30 min,58.85%
same,Remaining Percentage (%),Stability in SIF; 60 min,33.12%
same,Remaining Percentage (%),Stability in SIF; 120 min,8.26%
same,Remaining Percentage (%),Stability in SIF; 180 min,2.57%
same,Remaining Percentage (%),Stability in SIF; 240 min,0.79%
C#Cc1cc(Nc2ncnc3cc(OCCOC)ccc23)cc(OCCOC)c1 [Compound 1 New],Binding Difference ILK (Kd)/EGFR (Kd),ILK; Nanotemper,0.5414
same,Kd,ILK; [9],6.85 µM
same,Kd,EGFR; [10],12.7 µM
C#Cc1cc(C#C)cc(Nc2ncnc3cc(OC)c(OC)cc23)c1 [Compound 4],Binding Difference ILK (Kd)/EGFR (Kd),purified recombinant ILK,1.34
same,Kd,purified recombinant ILK,1.54 µM
C#Cc1cc(Nc2ncnc3cc(OCCOC)c(OCCOC)cc23)cc(OCCOC)c1 [Compound 7],Kd,ILK; [9],2.44 µM
C#Cc1cc(Nc2ncnc3cc(OCCOC)c(OCCOC)cc23)cc(OCCOCC)c1 [Compound 8],Binding Difference ILK (Kd)/EGFR (Kd),ILK; Nanotemper,0.1043
same,Kd,"ILK; Nanotemper (Table 1), read-out: KD to ILK",~0.92 µM
same,Kd,ILK; [9],0.922 µM
same,Kd,"EGFR; Nanotemper (Table 1), read-out: KD to EGFR",~8.84 µM
same,Kd,EGFR; [10],8.84 µM
"CNC(=O)CCc1cc(-c2ccc(-c3ccc(C(F)(F)F)cc3)cc2)n(-c2ccc(N3CCNCC3)cc2)n1 [Compound 22, reference compound]",binding to purified ILK,purified recombinant ILK,no detectable binding
C[C@@H]1CC[C@@]2(OC1)O[C@H]1[C@@H](O)[C@H]3[C@@H]4CC[C@H]5C[C@@H](O[C@@H]6O[C@H](CO)[C@H](O[C@@H]7O[C@H](CO)[C@@H](O)[C@H](O[C@@H]8OC[C@@H](O)[C@H](O)[C@H]8O)[C@H]7O[C@@H]7O[C@H](CO)[C@H](O)[C@H](O[C@@H]8O[C@H](CO)[C@@H](O)[C@H](O)[C@H]8O)[C@H]7O)[C@H](O)[C@H]6O)[C@H](O)C[C@]5(C)[C@H]4CC[C@]3(C)[C@H]1[C@@H]2C [Digitonin],Fold change in IC50,HepG2 cells,2.40
same,IC50,HepG2 cells; [11],1.79 µM
same,IC50,HepG2 cells; [12],4.3 µM
C[C@H]1O[C@@H](O[C@H]2[C@@H](O)C[C@H](O[C@H]3[C@@H](O)C[C@H](O[C@H]4CC[C@@]5(C)[C@H](CC[C@@H]6[C@@H]5C[C@@H](O)[C@]5(C)[C@@H](C7=CC(=O)OC7)CC[C@]65O)C4)O[C@@H]3C)O[C@@H]2C)C[C@H](O)[C@@H]1O [Digoxin],recovery,[2]; [13],87.9%
same,recovery,[2]; [14],96.5%
same,efflux ratio,[2],27
same,Papp A→B,[2],0.61 ×10⁻⁶ cm/s
same,Papp B→A,[2],16.6 ×10⁻⁶ cm/s
C#Cc1cc(Nc2ncnc3cc(OCCOC)c(OCCOC)cc23)ccc1C [Erlotinib-4-methylphenyl analog (E4ME)],Binding Difference ILK (Kd)/EGFR (Kd),purified recombinant ILK,2.075
same,Kd,purified recombinant ILK,1.55 µM
"CC(=O)N1CCN(c2ccc(OCC3COC(Cn4ccnc4)(c4ccc(Cl)cc4Cl)O3)cc2)CC1 (stereo not drawn) [Ketoconazole, reference compound]",% Bound,[3],99.33%
same,% Recovery,[3],104.25%
same,% Bound,[4],98.33%
same,% Recovery,[4],101.01%
same,% Bound,[5],99.63%
same,% Recovery,[5],100.83%
"CC[C@H](C)C(=O)O[C@H]1C[C@@H](C)C=C2C=C[C@H](C)[C@H](CC[C@@H]3C[C@@H](O)CC(=O)O3)[C@H]21 [Mevinolin, reference compound]",Remaining Percentage (%),Stability in rat plasma; 0 min,100.00%
same,Remaining Percentage (%),Stability in rat plasma; 15 min,3.78%
same,Remaining Percentage (%),Stability in rat plasma; 30 min,0.00%
same,Remaining Percentage (%),Stability in rat plasma; 45 min,0.00%
same,Remaining Percentage (%),Stability in rat plasma; 60 min,0.00%
same,Remaining Percentage (%),Stability in rat plasma; 120 min,0.00%
CCc1nn(CCCN2CCN(c3cccc(Cl)c3)CC2)c(=O)n1CCOc1ccccc1 [Nefazodone],Fold change in IC50,HepG2 cells,11.33
same,IC50,HepG2 cells; [11],6.82 µM
same,IC50,HepG2 cells; [12],77.2 µM
COc1cc2nc(N3CCN(C(=O)c4ccco4)CC3)nc(N)c2cc1OC [Prazosin],recovery,[2]; [13],85.1%
same,recovery,[2]; [14],99%
same,efflux ratio,[2],2.41
same,Papp B→A,[2],30.1 ×10⁻⁶ cm/s
"CC(=O)[C@H]1CC[C@H]2[C@@H]3CCC4=CC(=O)CC[C@]4(C)[C@H]3CC[C@]12C [Progesterone, reference compound]",solubility,[6],13.9 µM
"CC(C)[N+](C)(CCOC(=O)C1c2ccccc2Oc2ccccc21)C(C)C [Propantheline, reference compound]",Remaining Percentage (%),[7]; 0 min,100.00%
same,Remaining Percentage (%),[7]; 15 min,54.01%
same,Remaining Percentage (%),[7]; 30 min,26.58%
same,Remaining Percentage (%),[7]; 45 min,9.84%
same,Remaining Percentage (%),[7]; 60 min,3.10%
same,Remaining Percentage (%),[7]; 120 min,0.13%
same,Remaining Percentage (%),[8]; 0 min,100.00%
same,Remaining Percentage (%),[8]; 15 min,74.15%
same,Remaining Percentage (%),[8]; 30 min,64.03%
same,Remaining Percentage (%),[8]; 45 min,48.07%
same,Remaining Percentage (%),[8]; 60 min,37.61%
same,Remaining Percentage (%),[8]; 120 min,14.60%
CC(C)NCC(O)COc1cccc2ccccc12 (stereo not drawn) [Propranolol],recovery,[2]; [13],60.8%
same,recovery,[2]; [14],80%
same,efflux ratio,[2],0.82
same,Papp A→B,[2],19.5 ×10⁻⁶ cm/s
same,Papp B→A,[2],15.9 ×10⁻⁶ cm/s
"CC1=NN(C(=O)CC(=O)Nc2ccc(C)cc2)C(=O)C1/N=N/c1cccc(C(=O)O)c1 (stereo not drawn) [QLT0267-like compound (QLT0267), reference compound]",binding to purified ILK,purified recombinant ILK,no detectable binding
"C=C[C@H]1C[N@@]2CC[C@H]1C[C@@H]2[C@@H](O)c1ccnc2ccc(OC)cc12 [Quinidine, reference compound]",IC50,CYP 2C8,3.72 µM
